Test results reported in patent publication US12415830B2, “Steroid compound, and use thereof and preparation method therefor” (Chengdu Kanghong Pharmaceutical Co Ltd, priority 2019, dated 2025).

Test system: mice
Assay: Light-dark shuttle box anti-anxiety test
Format: in vivo
Details: 5 consecutive days, 30 min after last administration, male mice
From the text: 57.3.1 light-dark shuttle box: The light-dark shuttle box is a standard and well characterized assay for anxiolytic effects of the exemplary compounds. Mice naturally avoid the light of the box because light makes mice evasive and stressful, but the exploration habit of mice also prompts mice to try to explore a bright box. Increased time on the light of the box by the exemplary compounds reflects an anxiolytic effect on mice. The experimental mice were randomly divided into 5 groups based on weight, including a negative control group, two different dosage groups (1 mg/kg and 3 mg/kg) of the tested compounds (KH004 or KH022), and every group had 10 male mice. Mice were administered with corresponding dosage for tested intervention for 5 consecutive days in advance, and conducting anxiolytic experiments after 30 min of the last administration. The retention time in the light box was selected as the main index for evaluating the anti-anxiety effect of KH004 and KH022.

Compound | The retention time in the light box (1.0 mg/kg) [%] | The retention time in the light box (3.0 mg/kg) [%]
C[C@@]1(O)CC[C@@]2(C)[C@@H](CC[C@@H]3[C@@H]2CC[C@]2(C)[C@@H](C(=O)Cn4ncnn4)CCC[C@@H]32)C1 [KH022] | 50.00 ± 4.59 | 56.66 ± 7.96
C[C@]12CC[C@@H](O)C[C@@H]1CC[C@@H]1[C@@H]2CC[C@]2(C)[C@@H](C(=O)Cn3ncnn3)CCC[C@@H]12 [KH004] | 50.30 ± 6.89 | 53.91 ± 9.37
